Test [1] deals with T1, Cp149 (truncated form of a HBV core protein) (Hepatitis B virus genotype D subtype ayw, UniProt P03146).
T1 construct: Cp149 (amino acids 1-149) is a truncated form of a HBV core protein; histidine tag (cleaved yes); made in house; host or cells: Escherichia coli BL21(DE3)
Nature of the test: Protein based assay: immunoblot analysis of in vitro HBV capsid assembly. In kind it is biochemical. The settings on record: for inhibition at 10 µM: read-out: Protein based assay (% inhibition, 10 μM); for inhibition at 0.1 µM: read-out: Protein based assay (% inhibition), 0.1 μM; for inhibition at 1 µM: read-out: Protein based assay (% inhibition), 1 μM. The procedure: Cp149 (amino acids 1-149) is a truncated form of a HBV core protein. It was expressed in Escherichia coli, and the expressed protein was purified. The recombinant Cp149 was expressed in E. coli BL21(DE3) cells cultured in LB medium at 37° C. When the culture reached an OD600 of 0.7 to 0.8, expression of the culture was induced with 0.5 mM isopropyl-β-d-thiogalactopyranoside and the culture was cooled to 16° C. After 16 hours, the cells were harvested, flash-frozen in liquid nitrogen, and stored at −80° C. To purify Cp149, thawed cells were resuspended in lysis buffer (20 mM Tris-HCl pH 9.0, 200 mM NaCl, 10 mM imidazole, 10 μg per mL DNaseI, 1 mM phenylmethylsulfonyl fluoride), and treated with ultrasonic waves. The supernatant was loaded onto Ni-NTA affinity resin. Proteins were eluted using a 20 mM to 500 mM imidazole gradient dissolved in lysis buffer. After removing the histidine tag with thrombin, the protein was further purified by HiTrap Q anion exchange chromatography (17115401, GE Healthcare).
To determine the effect on in vitro Cp149 assembly, compounds of the present invention were added to the Cp149-containing suspension. The final concentration of Cp149 was 1 mg per mL, and the compounds of the present invention were added at concentrations of 0.1 to 10 μM. The suspension was mixed with reaction buffer (150 mM HEPES, pH 7.5, 15 mM NaCl) added in a 2:1 ratio. In vitro assembly was performed at 37° C. for 1 hour, and HBV capsid was detected by immunoblot analysis using an anti-HBV core antibody (1:2000, B0586, Dako).

A further test deals with HBV DNA. Put plainly: Quantitative PCR for measuring HBV DNA in cells (HBV DNA quantification). In kind it is cell-based. The method, then: After treating cells with the indicated compounds, HBV DNA secreted into the medium and intracellular HBV DNA were extracted, purified, and quantified by quantitative PCR. To isolate the secreted HBV DNA, the culture medium was recovered and centrifuged at 15,000×g to remove debris. The medium was diluted 1:1 with phosphate-buffered saline (PBS), and 1 M NaOH solution was added to a final concentration of 0.1 M. The mixture was incubated at 37° C. for 1 hour. The protein was denatured by adding 2M Tris-HCl solution (pH 7.5) to a final concentration of 0.2 M and incubating at 98° C. for 5 minutes. The protein precipitation was removed by centrifugation at 15,000×g, and the supernatant was subjected to PCR with HBV DNA primer and probe sets:
Forward: 5′-[…]-3′, Reverse: 5′-[…]-3′, Probe: 5′-[…]-3′.

[2] abbreviates: Hepatitis B virus, read-out: HBV DNA quantification (IC50 μM).
Where [3] appears, read: Hepatitis B virus; read-out: HBV DNA quantification (IC50 μM).

The source of these data is patent US20230399320A1, “NOVEL CAPSID ASSEMBLY INHIBITOR” (Pelemed Co., Ltd., priority 2020, published 2023).

Where two headings read alike, the source gives them in different places.

T1 sequence (P03146 1-149): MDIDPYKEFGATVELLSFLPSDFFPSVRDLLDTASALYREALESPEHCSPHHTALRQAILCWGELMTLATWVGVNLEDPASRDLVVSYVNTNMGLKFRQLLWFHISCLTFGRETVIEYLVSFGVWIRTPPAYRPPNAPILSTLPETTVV

For the compound `CC(C)(C)OC(=O)N1CCN(c2cc(Nc3ccc(Br)cc3)nc(S(C)(=O)=O)n2)CC1` [Compound 22e, tert-butyl 4-(6-(4-bromophenylamino)-2-(methylsulfonyl)pyrimidin-4-yl)piperazine-1-carboxylate], the inhibition at 10 µM in test [1] stood at 67%. Moreover, in the test with HBV DNA (setting [2]), the IC50 stood at 0.652 µM.

As to `CC(C)(C)OC(=O)N1CCN(c2cc(Nc3ccc(I)cc3)nc(S(C)(=O)=O)n2)CC1` [Compound 22f, tert-butyl 4-(6-(4-iodophenylamino)-2-(methylsulfonyl)pyrimidin-4-yl)piperazine-1-carboxylate], in test [1], the inhibition at 10 µM is 66%. For the same compound, the IC50 with HBV DNA (setting [2]) was determined as 1.1 µM.

Turning to `CS(=O)(=O)c1nc(Cl)cc(Nc2cc(F)c(F)c(F)c2)n1` [Compound 16b, 6-chloro-2-(methylsulfonyl)-N-(3,4,5-trifluorophenyl)pyrimidin-4-amine], the inhibition at 10 µM in test [1] is 82%. Also, in the test with HBV DNA (setting [2]), the IC50 stood at 0.473 µM.

Turning to `CS(=O)(=O)c1nc(Nc2cc(F)c(F)c(F)c2)cc(NC2CCNCC2)n1` [Compound 26e, 2-(methylsulfonyl)-N^4-(piperidin-4-yl)-N^6-(3,4,5-trifluorophenyl)pyrimidine-4,6-diamine], in test [1], the inhibition at 0.1 µM was found to be 16% and the inhibition at 1 µM came to 90%. Besides, the IC50 in the test with HBV DNA (setting [3]) was found to be 0.19 µM.

Turning to `COc1ncccc1C(=O)NCCNc1cc(Nc2ccc(F)c(F)c2)nc([S+](C)[O-])n1` (centres unmarked) [Compound 9f, N-(2-(6-(3,4-difluorophenylamino)-2-(methylsulfinyl)pyrimidin-4-ylamino)ethyl)-2-methoxynicotinamide], the inhibition at 10 µM in test [1] was found to be 38%. The IC50 with HBV DNA (setting [2]) was > 10 µM.

For the compound `CS(=O)(=O)c1nc(Nc2ccc(F)c(Br)c2)cc(N2CCNCC2)n1` [Compound 26d, N-(3-bromo-4-fluorophenyl)-2-(methylsulfonyl)-6-(piperazin-1-yl)pyrimidin-4-amine], in test [1], the inhibition at 0.1 µM was determined as 13% and the inhibition at 1 µM worked out at 98%. Besides, in the test with HBV DNA (setting [3]), the IC50 stood at 0.547 µM.

Turning to `CS(=O)(=O)c1nc(Nc2ccc(F)c(Br)c2)cc(N2CCC(N)CC2)n1` [Compound 26j, 6-(4-aminopiperidin-1-yl)-N-(3-bromo-4-fluorophenyl)-2-(methylsulfonyl)pyrimidin-4-amine], in test [1], the inhibition at 0.1 µM turned out to be 10% and the inhibition at 1 µM is 98%. The IC50 in the test with HBV DNA (setting [3]) is 0.48 µM.

As to `CSc1nc(Cl)cc(N(CCc2ccc(F)cc2)c2ccc(N3CCOCC3)cc2)n1` [Compound 10b, 6-chloro-N-(4-fluorophenethyl)-2-(methylthio)-N-(4-morpholinophenyl)pyrimidin-4-amine], the inhibition at 10 µM in test [1] came to 76%. In addition, the IC50 in the test with HBV DNA (setting [2]) was > 10 µM.

In the case of `CS(=O)(=O)c1nc(Nc2cc(F)c(F)c(F)c2)cc(N2CCNCC2)n1` [Compound 26b, 2-(methylsulfonyl)-6-(piperazin-1-yl)-N-(3,4,5-trifluorophenyl)pyrimidin-4-amine], in test [1], the inhibition at 0.1 µM turned out to be 39% and the inhibition at 1 µM came out at 92%. Besides, in the test with HBV DNA (setting [3]), the IC50 amounted to 0.203 µM.

As to `CS(=O)(=O)c1nc(Nc2cc(F)c(F)c(F)c2)cc(Nc2cc(F)c(F)c(F)c2)n1` [Compound 18b, 2-(methylsulfonyl)-N^4,N^6-bis(3,4,5-trifluorophenyl)pyrimidine-4,6-diamine], in test [1], the inhibition at 10 µM amounted to 69%. In addition, in the test on HBV DNA (setting [3]), the half-inhibitory concentration (IC50) came to 1.02 µM.

For `C[S+]([O-])c1nc(NCCNC(=O)c2ccc(Cl)cc2Cl)cc(Nc2ccc(N3CCOCC3)cc2)n1` (centres unmarked) [Compound 5d, 2,4-dichloro-N-(2-(2-(methylsulfinyl)-6-(4-morpholinophenylamino)pyrimidin-4-ylamino)ethyl)benzamide], the inhibition at 10 µM in test [1] was 0%. In addition, the IC50 in the test with HBV DNA (setting [2]) is > 10 µM.

By inhibition is commonly meant the drop in the measured response relative to a control, in per cent. In general, IC50 refers to the concentration at which inhibition is half-maximal.
